Laboratory results published in ChEMBL document CHEMBL5620410, “Crystal structures of non-uracil ring fragments in complex with Mycobacterium tuberculosis uracil DNA glycosylase (MtUng) as a starting point for novel inhibitor design: A case study with the barbituric acid fragment” (Eur J Med Chem, 2023).

Legend:
[1] = Inhibition of Mycobacterium tuberculosis Uracil-DNA glycosylase using 5' 32P end-labelled uracil DNA containing oligomer (5'-ctcaagtgUaggcatgcttttgcatgcctgcacttga-3') as substrate preincubated with enzyme for 15 mins followed by incubation on ice for 5 mins and incubation at room temperature for 5 mins and later incubated with substrate for 15 mins by radioactivity based assay
[2] = Inhibition of Mycobacterium tuberculosis Uracil-DNA glycosylase using 5'-FAM-CUUUUUGAGCTTTTGCTCAAAAAG-3'-BHQ-1 as substrate measured every 2 mins for 40 mins by fluorescence based analysis

## O=C(O)c1c[nH]c(=O)[nH]c1=O
[1]
  IC50: 2400 µM
[2]
  IC50: 15900 µM

## O=C(O)c1[nH]c(=O)[nH]c(=O)c1F
[1]
  IC50: 2800 µM
[2]
  IC50: 2930 µM

## COc1cc2nc(O)nc(O)c2cc1OC
[2]
  IC50: 930 µM

## Oc1ncc(O)c(O)n1
[1]
  IC50: 1200 µM
[2]
  IC50: 2800 µM

## O=C1NC(=O)C(=Cc2ccc([N+](=O)[O-])cc2)C(=O)N1
[1]
  IC50: 1000 µM

## COC(=O)COc1ccc(C=C2C(=O)NC(=O)NC2=O)cc1
[1]
  IC50: 500 µM
[2]
  IC50: 330 µM

## COC(=O)CCCOc1ccc(C=C2C(=O)NC(=O)NC2=O)cc1
[1]
  IC50: 3000 µM

## COc1cccc(C=C2C(=O)NC(=O)NC2=O)c1
[1]
  IC50: 1900 µM

## COC(=O)c1ccc(OCCOc2ccc(C=C3C(=O)NC(=O)NC3=O)cc2)cc1
[1]
  IC50: 1200 µM

## COC(=O)c1cccc(OCCOc2ccc(C=C3C(=O)NC(=O)NC3=O)cc2)c1
[1]
  IC50: 2400 µM

## COC(=O)c1ccccc1OCCCOc1ccc(C=C2C(=O)NC(=O)NC2=O)cc1
[1]
  IC50: 1600 µM

## O=C1NC(=O)C(=Cc2ccc(OCCOc3ccccc3C(=O)O)cc2)C(=O)N1
[1]
  IC50: 1900 µM
[2]
  IC50: 1100 µM

## O=C1NC(=O)C(=Cc2ccc(OCCCOc3ccccc3C(=O)O)cc2)C(=O)N1
[1]
  IC50: 700 µM

## COC(=O)c1ccccc1OCCOc1ccc(C=C2C(=O)NC(=O)NC2=O)cc1
[1]
  IC50: 100 µM

## COC(=O)COc1ccccc1C=C1C(=O)NC(=O)NC1=O
[2]
  IC50: 5550 µM

## COC(=O)COc1cccc(C=C2C(=O)NC(=O)NC2=O)c1
[2]
  IC50: 10400 µM

## COC(=O)c1ccc(OCCOc2ccccc2C=C2C(=O)NC(=O)NC2=O)cc1
[1]
  IC50: 3500 µM

## COC(=O)CCCOc1ccccc1C=C1C(=O)NC(=O)NC1=O
[2]
  IC50: 990 µM

## O=Cc1cc(=O)[nH]c(=O)[nH]1
[1]
  IC50: 1000 µM
[2]
  IC50: 6510 µM

## COC(=O)CCCOc1cccc(C=C2C(=O)NC(=O)NC2=O)c1
[2]
  IC50: 4200 µM

## COC(=O)c1ccccc1OCCOc1ccccc1C=C1C(=O)NC(=O)NC1=O
[2]
  IC50: 1060 µM

## O=C1NC(=O)C(=Cc2ccc(Br)cc2)C(=O)N1
[1]
  IC50: 1500 µM

## O=C1CC(=O)NC(=O)N1 [BARBITURIC ACID]
[1]
  IC50: 1000 µM
[2]
  IC50: 7290 µM

## Cc1cc2nc3[nH]c(=O)[nH]c(=O)c3nc2cc1C [LUMICHROME]
[1]
  IC50: 1500 µM

## O=C(O)c1cc(=O)[nH]c(=O)[nH]1 [OROTIC ACID]
[1]
  IC50: 2300 µM
[2]
  IC50: 14200 µM

## O=C1CSC(=O)N1 [THIAZOLIDINEDIONE]
[2]
  IC50: 17300 µM

## O=c1cc[nH]c(=O)[nH]1 [URACIL]
[1]
  IC50: 800 µM
[2]
  IC50: 2050 µM

## Oc1nc(O)c2nc(O)[nH]c2n1 [URIC ACID]
[1]
  IC50: 1700 µM
[2]
  IC50: 16400 µM
